Assay: Aqueous solubility of Compound (I) and its salts
Assay type: physicochemical
Details: aqueous medium; free base
Text: In an effort to enhance the solubility of Compound (I) in aqueous vehicle, ‘salt forms’ of Compound (I) were explored.

Compound: COc1ccc(CNc2nc(N3CCC[C@H]3COC(=O)CCCCCO[N+](=O)[O-])ncc2C(=O)NCc2ncccn2)cc1Cl [Compound (I), [(2S)-1-(4-{[(3-chloro-4-methoxyphenyl)methyl]amino}-5-{[(pyrimidin-2-yl)methyl]carbamoyl}pyrimidin-2-yl)pyrrolidin-2-yl]methyl 6-(nitrooxy)hexanoate]
- solubility: 13 µg/mL
